In brackets after ≈: the same amount, converted by molar mass. Where two headings read alike, the source gives them in different places.
Columns and labels:
Format in all cases: cell-based
[1] = test system: Fusarium moniliforme (Fm); assay: In vitro pathogen growth inhibition assay, Fm; details: Fusarium verticillioides
In short: (§1)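 Value reported is the compound concentration reaching ≥90% growth inhibition, from OD readings at 24 and 48 h after blank subtraction, confirmed visually. Inoculum was spores diluted in 17% V8 medium, except Rs, using 1.5 mm mycelial plugs in ¼ PDB; actual compound concentration corrected via OD600.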

Septoria tritici (St) = assay: In vitro pathogen growth inhibition assay, St; details: Zymoseptoria tritici, 48 h
In short: as §1

Rhizoctonia solani (Rs) = assay: In vitro pathogen growth inhibition assay, Rs (mycelial plugs); details: Rhizoctonia solani, 48 h
In short: (§2)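 Spores of Dm, Fv and Pc were diluted in 17% V8 liquid medium; Rs used 1.5 mm mycelial plugs in ¼ PDB. Compounds from 2.5 mg/ml DMSO stocks were combined with inoculum, growth was read by OD600 at 24 and 48 h with blank subtraction, and the reported value is the concentration giving ≥90% inhibition.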

[2] = test system: Phytophthora capsici (Pc); assay: In vitro pathogen growth inhibition assay, Pc; details: 48 h
In short: as §2

[3] = test system: Fusarium virguliforme (Fv); assay: In vitro pathogen growth inhibition assay, Fv
In short: as §2

Botrtyis cinerea (Bc) = assay: In vitro pathogen growth inhibition assay, Bc; details: 48 h
In short: as §1

[4] = test system: Collectotrichum graminicola (Cg); assay: In vitro pathogen growth inhibition assay, Cg; details: 48 h
In short: as §1

Diplodia maydis (Dm) = assay: In vitro pathogen growth inhibition assay, Dm; details: Stenocarpella maydis, 48 h
In short: as §2

[5] = ≥90% growth inhibition, 48 hours, vs 2% DMSO control, read-out: Compound Concentration (ppm) sufficient for ≥90% inhibition of Fm
[6] = ≥90% growth inhibition, 48 hours, vs 2% DMSO control, read-out: Compound Concentration (ppm) sufficient for ≥90% inhibition of St
[7] = ≥90% growth inhibition, mycelial plugs, 48 hours, vs 2% DMSO control, read-out: Compound Concentration (ppm) sufficient for ≥90% inhibition of Rs
[8] = ≥90% growth inhibition, 48 hours, vs 2% DMSO control, read-out: Compound Concentration (ppm) sufficient for ≥90% inhibition of Pc
[9] = ≥90% growth inhibition, 48 hours, vs 2% DMSO control, read-out: Compound Concentration (ppm) sufficient for ≥90% inhibition of Fv
[10] = ≥90% growth inhibition, 48 hours, vs 2% DMSO control, read-out: Compound Concentration (ppm) sufficient for ≥90% inhibition of Bc
[11] = ≥90% growth inhibition, 48 hours, vs 2% DMSO control, read-out: Compound Concentration (ppm) sufficient for ≥90% inhibition of Cg
[12] = ≥90% growth inhibition, 48 hours, vs 2% DMSO control, read-out: Compound Concentration (ppm) sufficient for ≥90% inhibition of Dm
[13] = concentration sufficient to ≥90% inhibition of growth, 48 hours vs 2% DMSO control, read-out: Compound Concentration (ppm) for ≥90% inhibition, Fm
[14] = concentration sufficient to ≥90% inhibition of growth, 48 hours vs 2% DMSO control, read-out: Compound Concentration (ppm) for ≥90% inhibition, St
[15] = concentration sufficient to ≥90% inhibition of growth, 48 hours vs 2% DMSO control, read-out: Compound Concentration (ppm) for ≥90% inhibition, Rs
[16] = concentration sufficient to ≥90% inhibition of growth, 48 hours vs 2% DMSO control, read-out: Compound Concentration (ppm) for ≥90% inhibition, Pc
[17] = concentration sufficient to ≥90% inhibition of growth, 48 hours vs 2% DMSO control, read-out: Compound Concentration (ppm) for ≥90% inhibition, Fv
[18] = concentration sufficient to ≥90% inhibition of growth, 48 hours vs 2% DMSO control, read-out: Compound Concentration (ppm) for ≥90% inhibition, Bc
[19] = concentration sufficient to ≥90% inhibition of growth, 48 hours vs 2% DMSO control, read-out: Compound Concentration (ppm) for ≥90% inhibition, Cg
[20] = concentration sufficient to ≥90% inhibition of growth, 48 hours vs 2% DMSO control, read-out: Compound Concentration (ppm) for ≥90% inhibition, Dm

| Compound | IC90 [1, 5] [µg/mL] | IC90 (Septoria tritici (St); [6]) [µg/mL] | IC90 (Rhizoctonia solani (Rs); [7]) [µg/mL] | IC90 [2, 8] [µg/mL] | IC90 [3, 9] [µg/mL] | IC90 (Botrtyis cinerea (Bc); [10]) [µg/mL] | IC90 [4, 11] [µg/mL] | IC90 (Diplodia maydis (Dm); [12]) [µg/mL] | IC90 [1, 13] [µg/mL] | IC90 (Septoria tritici (St); [14]) [µg/mL] | IC90 (Rhizoctonia solani (Rs); [15]) [µg/mL] | IC90 [2, 16] [µg/mL] | IC90 [3, 17] [µg/mL] | IC90 (Botrtyis cinerea (Bc); [18]) [µg/mL] | IC90 [4, 19] [µg/mL] | IC90 (Diplodia maydis (Dm); [20]) [µg/mL] |
| --- | --- | --- | --- | --- | --- | --- | --- | --- | --- | --- | --- | --- | --- | --- | --- | --- |
| CC(=O)Oc1ccccc1[C@H](Cn1c(=O)n(C(C)(C)C(=O)NC(C)C)c(=O)c2c(C)c(-n3nccn3)sc21)OCCC#N [Compound I-304] | 0.08 (≈ 0.132 µM) | > 50 | 2 (≈ 3.29 µM) | > 50 | 0.4 (≈ 0.658 µM) | 2 (≈ 3.29 µM) | 2 (≈ 3.29 µM) | ≥ 10 | – | – | – | – | – | – | – | – |
| CCNC(=O)[C@H](C)n1c(=O)c2c(C)c(C(=O)OCC)sc2n(C[C@H](OCCC#N)c2cc(F)ccc2OC)c1=O [Compound I-305] | 0.08 (≈ 0.139 µM) | > 50 | 0.4 (≈ 0.696 µM) | > 50 | 0.4 (≈ 0.696 µM) | 0.4 (≈ 0.696 µM) | 2 (≈ 3.48 µM) | 2 (≈ 3.48 µM) | – | – | – | – | – | – | – | – |
| CCNC(=O)[C@H](C)n1c(=O)c2c(C)c(-n3cccn3)sc2n(C[C@H](OCCC#N)c2cc(F)ccc2OC)c1=O [Compound I-306] | – | – | – | – | – | – | – | – | 10 (≈ 17.6 µM) | > 50 | > 50 | > 50 | > 50 | 50 (≈ 87.9 µM) | > 50 | > 50 |
| COc1ccc(F)cc1[C@H](Cn1c(=O)n(C(C)(C)C(=O)NC(C)C)c(=O)c2c(C)c(-n3nccn3)sc21)OC(=O)CO [Compound I-309] | – | – | – | – | – | – | – | – | 10 (≈ 16.6 µM) | > 50 | > 50 | > 50 | 10 (≈ 16.6 µM) | 50 (≈ 83 µM) | > 50 | > 50 |
| COCCO[C@@H](Cn1c(=O)n([C@@H](C)C(=O)NC(C)C)c(=O)c2c(C)c(-n3cccn3)sc21)c1cc(F)ccc1OC [Compound I-311] | – | – | – | – | – | – | – | – | 50 (≈ 85.1 µM) | > 50 | > 50 | > 50 | > 50 | 50 (≈ 85.1 µM) | > 50 | > 50 |
| COc1ccc(F)cc1[C@H](Cn1c(=O)n([C@@H](C)C(=O)NC2CCC2)c(=O)c2c(C)c(-n3cccn3)sc21)OCCC#N [Compound I-312] | – | – | – | – | – | – | – | – | 10 (≈ 16.8 µM) | > 50 | 2 (≈ 3.36 µM) | > 50 | > 50 | > 50 | > 50 | > 50 |
| COc1ccc(F)cc1[C@H](Cn1c(=O)n([C@@H](C)C(=O)N2CCCC2)c(=O)c2c(C)c(-n3cccn3)sc21)OCCC#N [Compound I-313] | 2 (≈ 3.36 µM) | > 50 | 50 (≈ 84.1 µM) | > 50 | 50 (≈ 84.1 µM) | > 50 | 50 (≈ 84.1 µM) | > 50 | – | – | – | – | – | – | – | – |
| COc1ccc(F)cc1[C@H](Cn1c(=O)n([C@H](C)C(=O)N2CCCC2)c(=O)c2c(C)c(-n3cccn3)sc21)OCCC#N [Compound I-314] | 2 (≈ 3.36 µM) | > 50 | > 50 | > 50 | 10 (≈ 16.8 µM) | > 50 | 50 (≈ 84.1 µM) | > 50 | – | – | – | – | – | – | – | – |
| COc1ccc(F)cc1[C@@](O)(CO)Cn1c(=O)n(C(C)(C)C(=O)NC(C)C)c(=O)c2c(C)c(-n3nccn3)sc21 [Compound I-315] | 0.08 (≈ 0.139 µM) | > 50 | 0.08 (≈ 0.139 µM) | 2 (≈ 3.48 µM) | 0.4 (≈ 0.696 µM) | 0.4 (≈ 0.696 µM) | 0.08 (≈ 0.139 µM) | 0.4 (≈ 0.696 µM) | – | – | – | – | – | – | – | – |
| COc1ccc(F)cc1[C@H](Cn1c(=O)n(C(C)(C)C(=O)NC(C)C)c(=O)c2c(C)c(-n3cncn3)sc21)OCCC#N [Compound I-317] | – | – | – | – | – | – | – | – | 10 (≈ 16.7 µM) | > 50 | > 50 | > 50 | ≥ 10 | 50 (≈ 83.7 µM) | 50 (≈ 83.7 µM) | > 50 |
| CCNC(=O)C(C)(C)n1c(=O)c2c(C)c(-n3nccn3)sc2n(C[C@@H](OC(C)=O)c2cc(F)ccc2OC)c1=O [Compound I-318] | – | – | – | – | – | – | – | – | 10 (≈ 17.5 µM) | > 50 | > 50 | > 50 | > 50 | 50 (≈ 87.3 µM) | > 50 | > 50 |
| COc1ccc(F)cc1[C@H](Cn1c(=O)n(C(C)(C)C(=O)NC(C)C)c(=O)c2c(C)c(-n3nccn3)sc21)OCCCO [Compound I-319] | 2 (≈ 3.32 µM) | > 50 | > 50 | > 50 | 10 (≈ 16.6 µM) | 50 (≈ 83 µM) | > 50 | > 50 | – | – | – | – | – | – | – | – |
| COc1ccc(F)cc1[C@@H](Cn1c(=O)n(C(C)(C)C(=O)NC(C)C)c(=O)c2c(C)c(-n3nccn3)sc21)OCCCO [Compound I-320] | – | – | – | – | – | – | – | – | 50 (≈ 83 µM) | > 50 | > 50 | > 50 | 50 (≈ 83 µM) | 50 (≈ 83 µM) | > 50 | > 50 |
| CCOC(=O)c1sc2c(c1C)c(=O)n(C(C)(C)C(=O)NC(C)C)c(=O)n2C[C@H](OCC(C)(C)C#N)c1cc(F)ccc1OC [Compound I-321] | 0.08 (≈ 0.127 µM) | > 50 | 2 (≈ 3.17 µM) | > 50 | 0.4 (≈ 0.634 µM) | 0.4 (≈ 0.634 µM) | 0.4 (≈ 0.634 µM) | ≥ 0.4 | – | – | – | – | – | – | – | – |
| COc1ccc(F)cc1[C@@H](Cn1c(=O)n(C(C)(C)C(=O)NC(C)C)c(=O)c2c(C)c(-n3nccn3)sc21)OC(C)=O [Compound I-322] | – | – | – | – | – | – | – | – | 10 (≈ 17 µM) | > 50 | > 50 | > 50 | ≥ 10 | 10 (≈ 17 µM) | > 50 | > 50 |
| CCNC(=O)C(C)(C)n1c(=O)c2c(C)c(-n3nccn3)sc2n(C[C@H](OC(C)=O)c2cc(F)ccc2OC)c1=O [Compound I-324] | 0.4 (≈ 0.699 µM) | > 50 | 2 (≈ 3.49 µM) | > 50 | 2 (≈ 3.49 µM) | 2 (≈ 3.49 µM) | 10 (≈ 17.5 µM) | 10 (≈ 17.5 µM) | – | – | – | – | – | – | – | – |

— patent publication US10941157B2, “Pesticidal compositions and uses thereof” (Gilead Apollo, LLC, priority 2015, dated 2021)
